# According to patent US10301596B2, “Method of repairing damaged chondrocytes via low-dose irradiation” (KOREA INSTITUTE OF RADIOLOGICAL & MEDICAL SCIENCES, priority 2013, dated 2019):
# How the values were obtained:
# Format in all cases: cell-based
# chondrocytes = test: Levels of differentiation- and inflammation-related proteins (type II collagen, Sox-9, I-κB, COX-2), Western blot in chondrocytes
# Description: First, the chondrocytes derived from joints were cultured in a DMEM medium according to a known method (E. H. Hong, et al., J. Biol. Chem. 285:1283-1295, 2010). Then, the cultured chondrocytes were inoculated into culture dishes at a density of 5×10^4 cells/cm^2, which were irradiated with 0 cGy, 0.5 cGy, 1.0 cGy, 1.5 cGy, and 2.0 cGy LDR using a ^137Cs-ray source (KIRMS, Korea), and the levels of type II collagen or Sox-9 protein, which are cartilage-specific differentiation marker proteins, and I-κB or COX-2 protein, which are inflammation-related proteins, were determined via Western blot analysis, and the transcriptional activity of Sox-9 protein and NF-κB, which is affected by I-κB, were determined by reporter gene assay (FIGS. 1a and b). […]
# Finally, chondrocytes were transfected with 3 μg of GFP-labeled S83A α-catenin, FLAG-labeled S33A β-catenin, or wild type γ-catenin, reacted with or without treatment with 5 μM or 10 μM BAY 11-7082 for 24 hours, and the levels of I-κB and COX-2 proteins were determined via Western blot analysis (FIG. 5g). […]
# NF-κB = NF-κB transcriptional activity, reporter gene assay in chondrocytes; settings: for NF-κB activity reduced compared to IL-1β-treated chondrocytes: 1 hour before 10 ng/mL IL-1β; for transcriptional activity of NF-κB increased: 10 ng/mL IL-1β
# Description: (§1) First, the chondrocytes derived from joints were cultured in a DMEM medium according to a known method (E. H. Hong, et al., J. Biol. Chem. 285:1283-1295, 2010). Then, the cultured chondrocytes were inoculated into culture dishes at a density of 5×10^4 cells/cm^2, which were irradiated with 0 cGy, 0.5 cGy, 1.0 cGy, 1.5 cGy, and 2.0 cGy LDR using a ^137Cs-ray source (KIRMS, Korea), and the levels of type II collagen or Sox-9 protein, which are cartilage-specific differentiation marker proteins, and I-κB or COX-2 protein, which are inflammation-related proteins, were determined via Western blot analysis, and the transcriptional activity of Sox-9 protein and NF-κB, which is affected by I-κB, were determined by reporter gene assay (FIGS. 1a and b).
# (§2) Chondrocytes were treated with either 10 ng/mL IL-1β alone, or in a combination of IL-1β treatment and 0.5 cGy or 1 cGy LDR, and the transcript levels of type I collagen, type II collagen, Sox-9, COX-2, and I-κB were measured via PCR using GAPDH as a control and a quantitative real-time PCR analysis, and the transcriptional activity of NF-κB was measured by reporter gene assay (FIGS. 2a, 2b, 2c, and 2d).
# Meanwhile, chondrocytes were treated with LY294002, which is another chemical inhibitor of PI3K/Akt signaling, at a concentration of 10 μM or 20 μM, reacted for 1 hour, treated with […] reacted for 48 hours. Upon reaction, the levels of type II collagen, Sox-9, I-κB, and COX-2 proteins were determined via Western blot analysis, and the transcriptional activity of NF-κB was determined by reporter gene assay (FIG. 3c).
# Finally, chondrocytes were transfected with 3 μg of the respective catenin plasmid for 24 hours, and untreated (−) or treated with 10 ng/mL, IL-1β (+) for 48 hours. Then, the levels of differentiation- and inflammation-related proteins were determined via Western blot analysis, and the transcriptional activity of NF-κB at 24 hours after IL-1β treatment was determined by reporter gene assay (FIG. 4d).
# Additionally, the transcriptional activity of Sox-9 or NF-κB was determined by reporter gene assay, and the experimental results were indicated in terms of mean standard deviation (FIG. 5e). As a result, it was confirmed that LDR can increase the activity of Sox-9 in catenin-overexpressing chondrocytes while reducing the transcriptional activity of NF-κB. Specifically, as shown in FIG. 5e (left), 1 cGy LDR irradiation increased Sox-9 activity by about a 2.2-, 2.7-, and 2.4-fold compared to that in cells transfected with […], and, as shown in FIG. 5e (right), reduced NF-κB activity by about 74%, 78%, and 75%, respectively, thus confirming that LDR has the effect of inhibiting the induction of potential inflammation.
# Sox-9 = Sox-9 transcriptional activity, reporter gene assay in chondrocytes; settings: 10 ng/mL IL-1β alone
# Description: as §1, §2
# Additionally, the transcriptional activity of Sox-9 or NF-κB was determined by reporter gene assay, and the experimental results were indicated in terms of mean standard deviation (FIG. 5e). […]
# COX-2 = COX-2 transcript level by PCR and quantitative real-time PCR in chondrocytes; settings: 10 ng/mL IL-1β
# Description: as §2
# Akt = test: Expression and phosphorylation of Akt and GSK3α/β, Western blot in chondrocytes; settings: 10 ng/mL IL-1β
# [1] = test system: α-, β-, and γ-catenin proteins; test: Levels of catenin proteins, Western blot in chondrocytes; settings: 10 ng/mL IL-1β for a predetermined period of time
# Description: First, chondrocytes were treated with 10 ng/mL IL-1β for a predetermined period of time, and the levels of the catenin proteins were determined via Western blot analysis (FIG. 4a).
# First, it was examined whether LDR can directly regulate the expression of catenin proteins in chondrocytes. In this regard, chondrocytes, which were in a state untreated or treated with 10 ng/mL IL-1β, were irradiated at varied doses of LDR for 48 hours, and the levels of catenin proteins were determined via Western blot analysis (FIGS. 5a and 5h).
# In order to examine whether the inhibitory effect of LDR on chondrocyte disorders is exclusively related to the responses to IL-1β, cells were treated with EGF, PMA, and RA, which are agents known to induce dedifferentiation of chondrocytes. Specifically, chondrocytes were treated or untreated with 10 ng/mL EGF(a), 10 nM PMA(b), and 1 μM RA(c) for 2 hours, treated or untreated with 0.5 cGy or 1 cGy LDR for 36 hours, and the levels of catenin proteins and differentiation/inflammation-related proteins were determined via Western blot analysis (FIGS. 6a, 6b, and 6c).
# [2] = 5 μM or 10 μM, 1 hour before 10 ng/mL IL-1β, 48 hours
compound,measurement,setting,value
Cc1ccc(S(=O)(=O)/C=C/C#N)cc1 [BAY 11-7082],"degradation of I-κB and induction of COX-2 in cells transfected with α-, β- or γ-catenin","chondrocytes; 5 μM or 10 μM for 24 hours, catenin-transfected chondrocytes",reversed
same,COX-2 protein expression compared to IL-1β-treated chondrocytes,chondrocytes; [2],reduced COX-2 expression
same,I-κB degradation,chondrocytes; [2],inhibited I-κB degradation in a dose-dependent manner
O=c1cc(N2CCOCC2)oc2c(-c3ccccc3)cccc12 [LY294002],NF-κB activity reduced compared to IL-1β-treated chondrocytes,NF-κB; 10 μM,about 48%
same,NF-κB activity reduced compared to IL-1β-treated chondrocytes,NF-κB; 20 μM,~68%
"CCCCCCCCCCCCCC(=O)O[C@@H]1[C@@H](C)[C@@]2(O)[C@@H](C=C(CO)C[C@]3(O)C(=O)C(C)=C[C@@H]23)[C@@H]2C(C)(C)[C@]12OC(C)=O [PMA, phorbol 12-myristate 13-acetate]","pathological changes induced by soluble factor (type II collagen, Sox-9, COX-2 proteins)","chondrocytes; 10 ng/mL EGF, 10 nM PMA or 1 μM RA",inhibition of expression of type II collagen and Sox-9 proteins and induction of COX-2 protein expression
"IL-1β: cytokine used at 10 ng/mL to induce dedifferentiation, inflammation and destruction of chondrocytes",transcriptional activity of Sox-9 reduced compared to control cells,Sox-9; 24 hours after treatment,about 32%
same,transcriptional activity of Sox-9 reduced compared to control cells,Sox-9; 48 hours after treatment,~60%
same,"NF-κB activity increase, IL-1β treatment alone","NF-κB; 10 ng/mL IL-1β alone, 24 hours after treatment, catenin experiment (FIG. 4d)",about 8.5 fold
same,transcriptional activity of NF-κB increased,NF-κB; 24 hours after treatment (FIG. 2c),about 8.6 fold
same,transcriptional activity of NF-κB increased,NF-κB; 48 hours after treatment (FIG. 2c),~6.7 fold
same,level of COX-2 expression increased compared to control group,COX-2; 24 hours after treatment,about 9.8 fold
same,level of COX-2 expression increased compared to control group,COX-2; 48 hours after treatment,~7.7 fold
same,phosphorylation of Akt induced by treatment,Akt,induced the phosphorylation of Akt
same,level of type II collagen and Sox-9 proteins,chondrocytes; 10 ng/mL IL-1β alone,reduced the level of type II collagen and Sox-9 proteins
same,"expression of α-, β-, and γ-catenin proteins",[1],expressed in a time-dependent manner
